Experimental data as given in patent US20240366639A1, “HETEROCYCLIC GLP-1 AGONISTS” (GASHERBRUM BIO, INC., priority 2021, published 2024).
Structures can show the parent of a compound that is named as a salt. Where two headings read alike, the source gives them in different places.

Molecular target: T1, GLP-1 Receptor (GLP1R) (Homo sapiens, UniProt P43220)
T1 construct: host or cells: HEK293/GLP1R/CRE-LUC
Test: GLP-1R agonist cAMP stimulation assay (Method 3)
Assay type: cell-based
Details: HEK293/GLP1R/CRE-LUC cells (HDB), Method 3, 30 min incubation
Method: Method 3: Activation of GLP-1 receptor is known to stimulate cyclic AMP (cAMP) production in cells which indicates primary coupling to the Gαs subunit of the G protein heterotrimeric complex.
To optimize functional activity directed toward Gαs coupling, a HEK293/CRE-Luc cell line developed by HDB stably expressing the GLP-1 Receptor was used, 200× concentration of compound working solutions were prepared (Agilent Technologies Bravo) with 1/2 log serial dilution in 384-well Echo LDV plate (Labcyte, Cat #LP-0200). 50 nL/well 200× concentration of compound working solutions were moved to 384-well white low volume plate (Greiner, Cat #784075) using Labcyte ECHO550. 1×10^5 cells/mL HEK293/GLP1R/CRE-LUC(HD Biosciences) cell suspensions prepared with assay buffer [DPBS containing 0.5 mM IBMX (Sigma, Cat #15879) and 0.1% BSA (GENVIEW, Cat #FA016-100 g)], 10 μL cell suspensions were added to each well of previous generated assay plate which already contains 50 nL compound at 200× concentration using ThermoFisher Multidrop Combi (1000 cells/well). Seal the plate and incubate at 37° C. with 5% CO2 for 30 min.
After incubation the cAMP assay signal was generated using cAMP dynamic 2 Kit (Cisbio). 5 μL cAMP-d2 working solution was added to each well, followed with 5 μL Anti-cAMP antibody-cryptate working solution added to each well using ThermoFisher Multidrop Combi. Incubate at room temperature for 1 hour protected from light. Read the fluorescence at 665 nm and 615 nm with Reader PerkinElmer EnVision.

[1] = read-out: GLP1R cAMP Stimulation DR: EC50 (nM) [Species: Human, Assay Cell Line: HDB]
[2] = read-out: GLP1R cAMP Stimulation DR: pEC50 (M) [Species: Human, Assay Cell Line: HDB] (converted)

T1 sequence (P43220 24-463): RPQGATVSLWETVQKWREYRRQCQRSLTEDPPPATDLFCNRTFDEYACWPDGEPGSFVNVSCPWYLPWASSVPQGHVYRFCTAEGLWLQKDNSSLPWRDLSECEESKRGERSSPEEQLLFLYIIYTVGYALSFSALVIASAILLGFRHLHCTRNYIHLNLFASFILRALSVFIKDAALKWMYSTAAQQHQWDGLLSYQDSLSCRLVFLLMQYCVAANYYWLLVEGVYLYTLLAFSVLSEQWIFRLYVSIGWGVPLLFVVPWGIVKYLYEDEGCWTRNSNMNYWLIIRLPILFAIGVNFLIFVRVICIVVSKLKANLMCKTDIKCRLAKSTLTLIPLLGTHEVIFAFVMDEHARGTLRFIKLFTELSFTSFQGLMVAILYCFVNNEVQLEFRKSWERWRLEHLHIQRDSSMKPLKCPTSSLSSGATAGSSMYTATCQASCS

Structure (SMILES)	EC50 [1] [nM]	EC50 [2] [nM]
CCP(=O)(CC)c1ccc(-n2ccn(-c3c4c(nn3-c3cc(C)c(F)c(C)c3)CCN(C(=O)c3cc5cc(C6CCOCC6)ccc5n3[C@@]3(c5noc(=O)[nH]5)C[C@@H]3C)[C@H]4C)c2=O)cc1N1CCOCC1 [Compound 114a, 3-((1S,2S)-1-(2-((S)-3-(3-(4-(diethylphosphoryl)-3-morpholinophenyl)-2-oxo-2,3-dihydro-1H-imidazol-1-yl)-2-(4-fluoro-3,5-dimethylphenyl)-4-methyl-4,5,6,7-tetrahydro-2H-pyrazolo[4,3-c]pyridine-5-carbonyl)-5-(tetrahydro-2H-pyran-4-yl)-1H-indol-1-yl)-2-methylcyclopropyl)-1,2,4-oxadiazol-5(4H)-one]	0.2 to 0.5	0.1 to 1
CCP(=O)(CC)c1ccc(-n2ccn(-c3c4c(nn3-c3cc(C)c(F)c(C)c3)CCN(C(=O)c3cc5cc(C6CCOCC6)ccc5n3[C@@]3(c5noc(=O)[nH]5)C[C@@H]3C)[C@H]4C)c2=O)cc1NC(=O)C1CC1 [Compound 115a, N-(2-(diethylphosphoryl)-5-(3-((S)-2-(4-fluoro-3,5-dimethylphenyl)-4-methyl-5-(1-((1S,2S)-2-methyl-1-(5-oxo-4,5-dihydro-1,2,4-oxadiazol-3-yl)cyclopropyl)-5-(tetrahydro-2H-pyran-4-yl)-1H-indole-2-carbonyl)-4,5,6,7-tetrahydro-2H-pyrazolo[4,3-c]pyridin-3-yl)-2-oxo-2,3-dihydro-1H-imidazol-1-yl)phenyl)cyclopropanecarboxamide]	0.2 to 0.5	0.1 to 1
CCP(=O)(CC)c1ccc(-n2ccn(-c3c4c(nn3-c3cc(C)c(F)c(C)c3)CCN(C(=O)c3cc5cc(C6CCOCC6)ccc5n3[C@@]3(c5noc(=O)[nH]5)C[C@@H]3C)[C@H]4C)c2=O)cc1NS(C)(=O)=O [Compound 116a]	0.2 to 0.5	0.1 to 1
CCP(=O)(CC)c1ccc(-n2ccn(-c3c4c(nn3-c3cc(C)c(F)c(C)c3)CCN(C(=O)c3cc5cc(C6CCOCC6)ccc5n3[C@@]3(c5noc(=O)[nH]5)C[C@@H]3C)[C@H]4C)c2=O)cc1N(C)C [Compound 117a, 3-((1S,2S)-1-(2-((S)-3-(3-(4-(diethylphosphoryl)-3-(dimethylamino)phenyl)-2-oxo-2,3-dihydro-1H-imidazol-1-yl)-2-(4-fluoro-3,5-dimethylphenyl)-4-methyl-4,5,6,7-tetrahydro-2H-pyrazolo[4,3-c]pyridine-5-carbonyl)-5-(tetrahydro-2H-pyran-4-yl)-1H-indol-1-yl)-2-methylcyclopropyl)-1,2,4-oxadiazol-5(4H)-one HCl salt]	0.2 to 0.5	0.1 to 1
CCP(=O)(CC)c1ccc(-n2ccn(-c3c4c(nn3-c3cc(C)c(F)c(C)c3)CCN(C(=O)c3cc5cc(C6CCOCC6)ccc5n3[C@@]3(c5noc(=O)[nH]5)C[C@@H]3C)[C@H]4C)c2=O)cc1OC [Compound 118a, 3-((1S,2S)-1-(2-((S)-3-(3-(4-(diethylphosphoryl)-3-methoxyphenyl)-2-oxo-2,3-dihydro-1H-imidazol-1-yl)-2-(4-fluoro-3,5-dimethylphenyl)-4-methyl-4,5,6,7-tetrahydro-2H-pyrazolo[4,3-c]pyridine-5-carbonyl)-5-(tetrahydro-2H-pyran-4-yl)-1H-indol-1-yl)-2-methylcyclopropyl)-1,2,4-oxadiazol-5(4H)-one]	< 0.1	≤ 0.1
CCP(=O)(CC)c1ccc(-n2ccn(-c3c4c(nn3-c3cc(C)c(F)c(C)c3)CCN(C(=O)c3cc5cc(C6CCOCC6)ccc5n3[C@@]3(c5noc(=O)[nH]5)C[C@@H]3C)[C@H]4C)c2=O)cc1NC(C)C [Compound 119a, 3-((1S,2S)-1-(2-((S)-3-(3-(4-(diethylphosphoryl)-3-(isopropylamino)phenyl)-2-oxo-2,3-dihydro-1H-imidazol-1-yl)-2-(4-fluoro-3,5-dimethylphenyl)-4-methyl-4,5,6,7-tetrahydro-2H-pyrazolo[4,3-c]pyridine-5-carbonyl)-5-(tetrahydro-2H-pyran-4-yl)-1H-indol-1-yl)-2-methylcyclopropyl)-1,2,4-oxadiazol-5(4H)-one]	0.2 to 0.5	0.1 to 1
CCNc1cc(-n2ccn(-c3c4c(nn3-c3cc(C)c(F)c(C)c3)CCN(C(=O)c3cc5cc(C6CCOCC6)ccc5n3[C@@]3(c5noc(=O)[nH]5)C[C@@H]3C)[C@H]4C)c2=O)ccc1P(=O)(CC)CC [Compound 120a, 3-((1S,2S)-1-(2-((S)-3-(3-(4-(diethylphosphoryl)-3-(ethylamino)phenyl)-2-oxo-2,3-dihydro-1H-imidazol-1-yl)-2-(4-fluoro-3,5-dimethylphenyl)-4-methyl-4,5,6,7-tetrahydro-2H-pyrazolo[4,3-c]pyridine-5-carbonyl)-5-(tetrahydro-2H-pyran-4-yl)-1H-indol-1-yl)-2-methylcyclopropyl)-1,2,4-oxadiazol-5(4H)-one]	< 0.1	≤ 0.1
CCP(=O)(CC)c1ccc(-n2ccn(-c3c4c(nn3-c3cc(C)c(F)c(C)c3)CCN(C(=O)c3cc5cc(C6CCOCC6)ccc5n3[C@@]3(c5noc(=O)[nH]5)C[C@@H]3C)[C@H]4C)c2=O)cc1NC [Compound 121a, 3-((1S,2S)-1-(2-((S)-3-(3-(4-(diethylphosphoryl)-3-(methylamino)phenyl)-2-oxo-2,3-dihydro-1H-imidazol-1-yl)-2-(4-fluoro-3,5-dimethylphenyl)-4-methyl-4,5,6,7-tetrahydro-2H-pyrazolo[4,3-c]pyridine-5-carbonyl)-5-(tetrahydro-2H-pyran-4-yl)-1H-indol-1-yl)-2-methylcyclopropyl)-1,2,4-oxadiazol-5(4H)-one]	< 0.1	≤ 0.1
Cc1cc(-n2nc3c(c2-n2ccn(-c4ccc(P(C)(C)=O)cc4F)c2=O)[C@H](C)N(C(=O)c2cc4cc(C5CCOCC5)ccc4n2[C@@]2(c4noc(=O)[nH]4)C[C@@H]2C)CC3)cc(C)c1F [Compound 122a, 3-((1S,2S)-1-(2-((S)-3-(3-(4-(dimethylphosphoryl)-2-fluorophenyl)-2-oxo-2,3-dihydro-1H-imidazol-1-yl)-2-(4-fluoro-3,5-dimethylphenyl)-4-methyl-4,5,6,7-tetrahydro-2H-pyrazolo[4,3-c]pyridine-5-carbonyl)-5-(tetrahydro-2H-pyran-4-yl)-1H-indol-1-yl)-2-methylcyclopropyl)-1,2,4-oxadiazol-5(4H)-one]	< 0.1	≤ 0.1
Cc1cc(-n2nc3c(c2-n2ccn(-c4ccc(P(C)(C)=O)c(OC(F)(F)F)c4)c2=O)[C@H](C)N(C(=O)c2cc4cc(C5CCOCC5)ccc4n2[C@@]2(c4noc(=O)[nH]4)C[C@@H]2C)CC3)cc(C)c1F [Compound 123a, 3-((1S,2S)-1-(2-((S)-3-(3-(4-(dimethylphosphoryl)-3-(trifluoromethoxy)phenyl)-2-oxo-2,3-dihydro-1H-imidazol-1-yl)-2-(4-fluoro-3,5-dimethylphenyl)-4-methyl-4,5,6,7-tetrahydro-2H-pyrazolo[4,3-c]pyridine-5-carbonyl)-5-(tetrahydro-2H-pyran-4-yl)-1H-indol-1-yl)-2-methylcyclopropyl)-1,2,4-oxadiazol-5(4H)-one]	0.2 to 0.5	0.1 to 1
Cc1cc(-n2ccn(-c3c4c(nn3-c3cc(C)c(F)c(C)c3)CCN(C(=O)c3cc5cc(C6CCOCC6)ccc5n3[C@@]3(c5noc(=O)[nH]5)C[C@@H]3C)[C@H]4C)c2=O)ccc1P(C)(C)=O [Compound 124a, 3-((1S,2S)-1-(2-((S)-3-(3-(4-(dimethylphosphoryl)-3-methylphenyl)-2-oxo-2,3-dihydro-1H-imidazol-1-yl)-2-(4-fluoro-3,5-dimethylphenyl)-4-methyl-4,5,6,7-tetrahydro-2H-pyrazolo[4,3-c]pyridine-5-carbonyl)-5-(tetrahydro-2H-pyran-4-yl)-1H-indol-1-yl)-2-methylcyclopropyl)-1,2,4-oxadiazol-5(4H)-one]	< 0.1	≤ 0.1
Cc1cc(-n2nc3c(c2-n2ccn(-c4ccc(P(C)(C)=O)c(N5CCOCC5)c4)c2=O)[C@H](C)N(C(=O)c2cc4cc(C5CCOCC5)ccc4n2[C@@]2(c4noc(=O)[nH]4)C[C@@H]2C)CC3)cc(C)c1F [Compound 125a, 3-((1S,2S)-1-(2-((S)-3-(3-(4-(dimethylphosphoryl)-3-morpholinophenyl)-2-oxo-2,3-dihydro-1H-imidazol-1-yl)-2-(4-fluoro-3,5-dimethylphenyl)-4-methyl-4,5,6,7-tetrahydro-2H-pyrazolo[4,3-c]pyridine-5-carbonyl)-5-(tetrahydro-2H-pyran-4-yl)-1H-indol-1-yl)-2-methylcyclopropyl)-1,2,4-oxadiazol-5(4H)-one]	0.2 to 0.5	0.1 to 1
